Test results: patent publication US8618145B2, “Small molecular compounds capable of accelerating proliferation of stem cells and use thereof” (priority 2009, dated 2013)

Assays:
Human neural stem cells = test: human neural stem cell proliferation, MTT; format: cell-based; settings: DMEM/F12+10% fetal bovine serum+EGF, bFGF, 4 days, FIG. 2
Protocol: Human neural stem cells (provided according to conventional methods by Peking University Stem Cell Research Center) is prepared into a single cell suspension by using a medium (DMEM/F12+10% fetal bovine serum+20 ng/mIEGF, bFGF), and is seeded at 2×10^4/well on 96-well plate. The experiments are divided into medium control group (a group without adding a medicine); medium+small molecular compound Ia group (a group with a medicine added). After culturing for 4 days, MTT (5 mg/ml) 10 ul is added. After incubating for 4 hours, a 100 μl lysis solution (10% SDS, 0.1% NH4Cl) is added. The mixture is incubated overnight. The light absorption value is detected at 490 nm.
The experimental results are shown in FIG. 2, the height of the histogram represents absorbance, which is proportional to the number of cells (which has the same vertical coordinate in the MTT method, and is not explained one by one).

Embryonic stem cell = test: embryonic stem cell proliferation, ATP method (CellTiter-Glo); format: cell-based; settings: serum free medium, culturing 1 to 4 days, FIG. 1
Protocol: (§1) Embryonic stem cell (obtained from oosperm according to the conventional method) is cultured in serum free medium (a conventional medium, such as DMEM/F12, αMEM, 1640, etc.). The experiments are divided into control group, FGF group, neural stem cells proliferation accelerator Ia group, FGF+neural stem cells proliferation accelerator Ia group. After culturing for 1 to 4 days, the kit CellTiter-Glo®Luminescent Cell Viability Assay (Promega) is used to detect cells proliferation by ATP method. The ATP method is performed in accordance with operational steps of the kit.
Therefore, Ia accelerates the proliferation of embryonic stem cells.

Rat neural stem cells = test: rat neural stem cell proliferation, ATP method; format: cell-based; settings: serum free medium; for proliferation rate of neural stem cells in rat: rat adult neural stem cells
Protocol: as §1
Rat neural stem cells are cultured in serum free medium. The experiments are divided into control group, FGF group, small molecular compound Ia group, and FGF+small molecular compound Ia group. The detection is carried out by ATP method (see the method in Example 6). Small molecular compound Ib, Ic, Id, Ie, If, Ig also conduct said experiment.

[1] = tested on: AD rat model (aggregated Aβ1-40 injected in hippocampus); test: pharmacodynamic evaluation in AD rat (Morris water maze); format: in vivo; settings: tail vein injection, administration for 14 days, FIG. 5
Protocol: Establishment of AD rat model: in the experiment, stereotaxic instrument and micro-injection pump are used to inject aggregated Aβ1-40 (5 ug/ul) 2 ul (0.4 ul/min, 5 min) to the dorsal blade of the dentate gyrus in the hippocampus of rat (3.0 mm behind anterior fontanelle, open at right 2.0 mm, subdural 3.2 mm, Incisor hook plane is 2.4 mm lower than the interaural line plane), the model is established after 2 weeks. […]
Pharmacodynamic experiment (Morris water maze): the experimental apparatus is a rustless steel round pool with a height of 60 cm, and a diameter of 150 cm (both the bottom and wall of the pool are covered by black paster to facilitate the video camera for distinguishing the white rats in pool), the video camera is connected to a computer; the pool is divided into four quadrants, and a platform is placed in the middle of the first quadrant. […] The experimental rats enter water from four different positions, the video camera records the swimming paths of each experimental rats, and the experimental results are analyzed by image processing software. […] During the experiment, the time the rat taken from entering water to climbing onto the platform (i.e., escape latency) is recorded, and the rat is allowed to stay on the platform for 10 sec. […] The escape latency of the animals, times of rearing up, and spatial bias are recorded and compared.

[2] = tested on: hippocampus cells of AD rat; test: HE staining of hippocampus cells in AD rat; format: in vivo; settings: AD rat of Example 13, dosage-dependent, FIG. 6 and FIG. 7
Protocol: The rats in Example 13 are perfused and their brains are taken. Rats are anesthetized with 10% chloral hydrate (0.3 ml/100 g). Heparin (200 ug/kg) is injected to the left ventricular, and the right atrial appendage is cut off. 40 ml physiological saline and then 300 ml 4% paraformaldehyde are perfused to the left ventricular to harden the brain. Brain taken: after breaking the neck, the skull is peeled to expose olfactory bulb, peeling it from olfactory bulb with a small curved scissor. After optic nerve is cut off, it is slowly peeled to naturally fall, the adhesion sites are cut off, and are placed into 4% paraformaldehyde solution overnight. It is dehydrated with gradient alcohol and is embedded in olefin, sectioned and floated.
HE staining: dewaxing with dimethylbenzene twice, each for 3 min. Hydration: hydration with descending concentration gradient alcohol: 100%→95%→90%→80%→70%. Dehydration lasts for 2˜3 mins to remove dimethylbenzene during each gradient. Water washing: ethanol is removed. It is dipped into a hematoxylin solution for 5-10 mins, and washed with tap-water. It is dipped into a dilute hydrochloric acid-ethanol solution to carry out color separation for only a few seconds. It is washed with tap-water and dipped into dilute ammonia to make the cell nucleus blue for 3-5 mins. […] It is mounted with neutral resin, and observed by […].

[3] = tested on: Human mesenchymal stem cells; test: human mesenchymal stem cell proliferation, MTT; format: cell-based; settings: α-MEM+10% fetal bovine serum, 2 days, FIG. 3
Protocol: (§2) Human (rat) mesenchymal stem cells (a cell line obtained according to conventional method) is prepared into a single cell suspension by using a medium (α-MEM+10% fetal bovine serum), and is seeded at 1×10^4/well on 96-well plate. The experiments are divided into medium control group; and medium+small molecular compound Ia group. After culturing for 2 days, MTT (5 mg/ml) 10 ul is added. After incubating for 4 hours, a 100 μl lysis solution (10% SDS, 0.1% NH4Cl) is added. The mixture is incubated overnight. The light absorption value is detected at 490 nm.

[4] = tested on: rat mesenchymal stem cells; test: rat mesenchymal stem cell proliferation, MTT; format: cell-based; settings: α-MEM+10% fetal bovine serum, 2 days, FIG. 4
Protocol: as §2

SMILES	human neural stem cell proliferation (absorbance at 490 nm) (Human neural stem cells)	embryonic stem cell proliferation (chemiluminescence intensity) (Embryonic stem cell)	proliferation rate of neural stem cells in rat (Rat neural stem cells)	effect on rat neural stem cell proliferation (in words) (Rat neural stem cells)	ability of learning and memory (water maze) [1]	degeneration of hippocampus cells (HE staining) [2]	human mesenchymal stem cell proliferation [3]	rat mesenchymal stem cell proliferation [4]
NNC(=S)Nc1ccc(-c2nnc(S)o2)cc1 [Ia, 4-(4-(5-mercapto-1,3,4-oxadiazol-2-yl)phenyl) thiosemicarbazide]	accelerates human neural stem cell proliferation	significantly increased	4.2	accelerate rat neural stem cell proliferation	improved ability of learning and memory	less seriously degenerated	accelerates human mesenchymal stem cell proliferation	accelerates rat mesenchymal stem cell proliferation
CSc1nnc(-c2ccc(NC(=S)NN)cc2)o1 [Ib, 4-(4-(5-(methylthio)-1,3,4-oxadiazol-2-yl)phenyl) thiosemicarbazide]			2	accelerate rat neural stem cell proliferation				
CNC(=S)Nc1ccc(-c2nnc(SC)o2)cc1 [Ic, 1-methyl-3-(4-(5-(methylthio)-1,3,4-oxadiazol-2-yl)phenyl)thiourea]			1.5	accelerate rat neural stem cell proliferation				
NNC(=O)Nc1ccc(-c2nnc(S)o2)cc1 [Id, 4-(4-(5-mercapto-1,3,4-oxadiazol-2-yl)phenyl) semicarbazide]			1.7	accelerate rat neural stem cell proliferation				
S=C(NNc1ccc(Cl)cc1)Nc1ccc(-c2nnc(S)o2)cc1 [Ie]			2.5	accelerate rat neural stem cell proliferation				
COc1ccc(NNC(=S)Nc2ccc(-c3nnc(S)o3)cc2)cc1 [If]			2.3	accelerate rat neural stem cell proliferation				
CNC(=S)Nc1ccc(-c2nnc(O)o2)cc1 [Ig, 1-methyl-3-(4-(5-oxo-4,5-dihydro-1,3,4-oxadiazol-2-yl)phenyl)thiourea]			2.4	accelerate rat neural stem cell proliferation				
